In patent US10155990B2, “Method for predicting therapeutic efficacy of PI3K/AKT/mTOR inhibitor on basis of PHLDA1 or PIK3C2B expression” (Taiho Pharmaceutical Co., Ltd., priority 2013, dated 2018):

Key:
Assay type in all cases: cell-based
[1] = system: panel of 240 cell lines composed of various cancers; test: GI50 versus PHLDA1/PIK3C2B expression in a panel of 240 cell lines (OncoPanel, Ricerca Biosciences); conditions: panel of 240 cell lines of various cancers
Source text: It was also examined whether the expression level of PHLDA1 or PIK3C2B has a correlation with the sensitivity to PI3K/AKT/mTOR inhibitors in a panel of 240 cell lines (OncoPanel™, Ricerca Biosciences) composed of various cancers such as lung cancer, kidney cancer, liver cancer, pancreatic cancer, large bowel cancer, bladder cancer, breast cancer, head and neck cancer, prostate cancer, skin cancer, blood cancer, and malignant lymphoma.

[2] = system: human ovarian cancer cell line OVCAR-3; test: Cytotoxicity after PIK3C2B gene knockdown, OVCAR-3; conditions: relative cell count after three days, FIG. 3
[3] = system: human breast cancer cell line HCC1187; test: Cytotoxicity after PIK3C2B gene knockdown, HCC1187; conditions: relative cell count after three days, FIG. 3
[4] = system: 37 cell lines from human breast cancer; test: Cytotoxicity assay (CellTiter-Glo, GI50) in 37 human breast cancer cell lines, related to PHLDA1/PIK3C2B expression, PIK3CA mutation, PTEN deletion
Description: A cytotoxicity assay was conducted as described below using 37 cell lines from human breast cancer (AU565, BT20, BT474, BT549, CAMA-1, DU4475, HCC1187, HCC1419, HCC1428, HCC1500, HCC1569, HCC1599, HCC1806, HCC1937, HCC1954, HCC202, HCC2218, HCC38, HCC70, MDA-MB-157, MDA-MB-175, MDA-MB-231, MDA-MB-361, MDA-MB-415, MDA-MB-436, MDA-MB-453, MDA-MB-468, UACC-812, and UACC-893 (all obtained from American Type Culture Collection (ATCC); MCF-7, SK-BR-3, T47D, and ZR-75-1 (all obtained from Sumitomo Dainippon Pharma Co., Ltd.); KPL-1, KPL-3C, and KPL-4 (provided by Dr. Kurebayashi at Kawasaki Medical School)). Each cell line was seeded into a 96-well flat-bottom microplate in an amount of 150 μL, and cultured in an incubator containing 5% carbon dioxide gas at 37° C. for one day. PI3K/AKT/mTOR inhibitors (AKT inhibitor: Compound-I, MK-2206, PI3K-mTOR dual inhibitor: BEZ235, PI3K inhibitor: GDC-0941, mTOR inhibitor: sirolimus) diluted stepwise with dimethylsulfoxide, paclitaxel diluted stepwise with dimethylsulfoxide, and dimethylsulfoxide were individually added to respective media for the cell lines. 50 μL of each of the media was added to the wells of the aforementioned 96-well flat-bottom microplate so that the final concentration of each drug became 10,000, 3,000, 1,000, 300, 100, 30, 3, and 1 nM. A separately prepared 96-well flat-bottom microplate in which each cell line was cultured for one day was allowed to stand at room temperature for 30 minutes, and 50 μL of the supernatant was removed from each well to leave 100 μL of the cell culture solution. […] The microplate was allowed to stand in a dark place for 10 minutes, and then the luminescence intensity of live cells of each well to which the drug were added was measured using a microplate reader (PerkinElmer, ARVOsx). […] The microplate was allowed to stand in a dark place for 10 minutes, and then the luminescence intensity of live cells of each well was measured using a microplate reader. […]
Subsequently, the expression level of PHLDA1 and PIK3C2B in the 37 cell lines from human breast cancer was measured. […]

[5] = 37 human breast cancer cell lines, 3 days drug exposure, FIG. 1

| Compound | Correlation between logarithm of GI50 and logarithm of expression level of PHLDA1 [1] | Correlation between logarithm of GI50 and logarithm of expression level of PIK3C2B [1] | Change in sensitivity to drug caused by PIK3C2B gene knockdown [2] | Change in sensitivity to drug caused by PIK3C2B gene knockdown [3] | Pearson correlation between logarithm of GI50 and logarithm of expression level of PHLDA1 [4, 5] | Pearson correlation between logarithm of GI50 and logarithm of expression level of PIK3C2B [4, 5] | Correlation of PTEN deletion with sensitivity (GI50) ([4]; 36 cell lines, PTEN deletion in 8 cell lines, FIG. 4) |
| --- | --- | --- | --- | --- | --- | --- | --- |
| Cn1c(=O)n(-c2ccc(C(C)(C)C#N)cc2)c2c3cc(-c4cnc5ccccc5c4)ccc3ncc21 [BEZ235, dactolisib] | significant correlation | significant correlation | – | – | – | – | – |
| CC(=O)O[C@H]1C(=O)[C@@]2(C)[C@H]([C@H](OC(=O)c3ccccc3)[C@]3(O)C[C@H](OC(=O)[C@H](O)[C@@H](NC(=O)c4ccccc4)c4ccccc4)C(C)=C1C3(C)C)[C@]1(OC(C)=O)CO[C@@H]1C[C@@H]2O [paclitaxel] | – | – | almost no change | almost no change | did not show a correlation | did not show a correlation | – |
| CS(=O)(=O)N1CCN(Cc2cc3nc(-c4cccc5[nH]ncc45)nc(N4CCOCC4)c3s2)CC1 [GDC-0941, pictilisib] | significant correlation | significant correlation | decrease in sensitivity | decrease in sensitivity | – | – | – |
| CC1(O)CC(N)(c2ccc(-c3nc4n(c3-c3ccccc3)COc3ccncc3-4)cc2)C1 (stereo not drawn) [Compound-I, trans-3-amino-1-methyl-3-(4-(3-phenyl-5H-imidazo[1,2-c]pyrido[3,4-e][1,3]oxazin-2-yl)phenyl)cyclobutanol] | significant correlation | significant correlation | decrease in sensitivity | decrease in sensitivity | – | – | did not show a correlation |
| NC1(c2ccc(-c3nc4ccn5c(=O)[nH]nc5c4cc3-c3ccccc3)cc2)CCC1 [MK-2206] | significant correlation | significant correlation | – | – | – | – | – |
